From EP4043444A1, “SUBSTITUTED ISOXAZOLINE DERIVATIVES” (priority 2021, dated 2022)

What was measured:
Format in all cases: in vivo
[1] = system: Green Peach Aphid (Myzus persicae) (mixed life stages); assay: Green Peach Aphid control through systemic means, artificial diet under artificial membrane; conditions: Myzus persicae, 72 h, read-out: mortality (Aphid mortality)
Excerpt: For evaluating control of Green Peach Aphid through systemic means the test unit consisted of 96-well-microtiter plates containing liquid artificial diet under an artificial membrane. The compounds were formulated using a solution containing 75% v/v water and 25% v/v DMSO. Different concentrations of formulated compounds were pipetted into the aphid diet, using a custom-built pipette, at two replications. After application, 5 - 8 adult aphids were placed on the artificial membrane inside the microtiter plate wells. The aphids were then allowed to suck on the treated aphid diet and incubated at about 23 + 1°C and about 50 + 5 % relative humidity for 3 days. Aphid mortality and fecundity was then visually assessed.

[2] = system: Greenhouse Whitefly (Trialeurodes vaporarirorum); assay: Greenhouse Whitefly control, 96-well microtiter plates with eggplant leaf disk and eggs; conditions: foliar, 144 h, read-out: mortality (Mortality of hatched crawlers)
Method: For evaluating control of Greenhouse Whitefly, the test unit consisted of 96-well-microtiter plates containing a leaf disk of eggplant leaf disk with Whitefly eggs. The compounds or mixtures were formulated using a solution containing 75% water and 25% DMSO. Different concentrations of formulated were sprayed onto the […] at 2.5µl, using a custom-built micro atomizer, at two replications. After application, microtiter plates were incubated at 23 + 1°C, 65 + 5% RH for 6 days. Mortality of hatched crawlers was then visually assessed.

[3] = system: Tobacco Budworm (Heliothis virescens); assay: Tobacco Budworm control, 96-well microtiter plates with insect diet and eggs; conditions: Heliothis virescens, 120 h; 2500ppm; sprayed onto insect diet; 5 days; in comparison with untreated controls; read-out: mortality (Egg and larval mortality)
Method: For evaluating control of Tobacco Budworm, the test unit consisted of 96-well-microtiter plates containing an insect diet and 15-25 H. virescens eggs. The compounds were formulated using a solution containing 75% v/v water and 25% v/v DMSO. Different concentrations of formulated compounds were sprayed onto the insect diet at 10µl, using a custom-built micro atomizer, at two replications. After application, microtiter plates were incubated at about 28 + 1°C and about 80 + 5 % relative humidity for 5 days. Egg and larval mortality was then visually assessed.

[4] = system: Boll weevil (Anthonomus grandis); assay: Boll weevil control, 96-well microtiter plates with insect diet and eggs; conditions: Anthonomus grandis, 120 h, read-out: mortality (Egg and larval mortality)
Method: For evaluating control of boll weevil, the test unit consisted of 96-well-microtiter plates containing an insect diet and 5-10 A. grandis eggs.
The compounds were formulated using a solution containing 75% v/v water and 25% v/v DMSO. Different concentrations of formulated compounds were sprayed onto the insect diet at 5µl, using a custom-built micro atomizer, at two replications.
After application, microtiter plates were incubated at about 25 + 1°C and about 75 + 5 % relative humidity for 5 days. Egg and larval mortality were then visually assessed.

[5] = system: Yellow Fever Mosquito (Aedes aegypti); assay: whole plant or invertebrate; conditions: 48 h, 2 days, in comparison with untreated controls, read-out: mortality (Larval mortality)
Method: For evaluating control of Yellow Fever Mosquito the test unit consisted of 96-well-microtiter plates containing 200µl of tap water per well and 5-15 freshly hatched A. aegypti larvae. The active compounds were formulated using a solution containing 75% (v/v) water and 25% (v/v) DMSO. Different concentrations of formulated compounds or mixtures were sprayed onto the insect diet at 2.5µl, using a custom-built micro atomizer, at two replications.
After application, microtiter plates were incubated at 28 + 1°C, 80 + 5 % RH for 2 days. Larval mortality was then visually assessed.

Measured: mortality at 2500 ppm

O=C(Nc1ccc(F)cc1F)c1cc(NC2=NOC(c3cccc(C(F)(F)F)c3)(C(F)(F)F)C2)ccc1Cl (stereo not shown) [I-20, 2-chloro-N-(2,4-difluorophenyl)-5-[[5-(trifluoromethyl)-5-[3-(trifluoromethyl)phenyl]-4H-isoxazol-3-yl]amino]benzamide]
not listed: [5]
≥ 75%: all other assays above

O=C(Nc1ccc(F)cc1F)c1cc(NC2=NOC(c3ccc(F)c(C(F)(F)F)c3)(C(F)(F)F)C2)ccc1Cl (stereo not shown) [I-16]
not listed: [2]
≥ 75%: all other assays above

O=C(CC(F)(F)F)Nc1c(F)ccc(NC(=O)c2cc(NC3=NOC(c4cc(Cl)cc(Cl)c4)(C(F)(F)F)C3)ccc2Cl)c1F (stereo not shown) [I-9]
not listed: [2]
≥ 75%: all other assays above

O=C(Nc1ccc(F)c(NC(=O)C(F)(F)Cl)c1F)c1cc(NC2=NOC(c3cc(Cl)cc(Cl)c3)(C(F)(F)F)C2)ccc1Cl (stereo not shown) [I-7]
not listed: [2]
≥ 75%: all other assays above

O=C(Nc1ccc(F)c(NC(=O)C(F)F)c1F)c1cc(NC2=NOC(c3cc(Cl)cc(Cl)c3)(C(F)(F)F)C2)ccc1Cl (stereo not shown) [I-5, 2-chloro-5-[[5-(3,5-dichlorophenyl)-5-(trifluoromethyl)-4H-isoxazol-3-yl]amino]-N-[3-[(2,2-difluoroacetyl)amino]-2,4-difluoro-phenyl]benzamide]
not listed: [2]
≥ 75%: all other assays above

O=C(Nc1ccc(F)cc1F)c1cccc(NC2=NOC(c3cc(Cl)cc(Cl)c3)(C(F)(F)F)C2)c1F (stereo not shown) [I-13, 3-[[5-(3,5-dichlorophenyl)-5-(trifluoromethyl)-4H-isoxazol-3-yl]amino]-N-(2,4-difluorophenyl)-2-fluoro-benzamide]
not listed: [2]
≥ 75%: all other assays above

O=C(Nc1ccc(F)cc1F)c1cc(NC2=NOC(c3cc(Cl)c(F)c(Cl)c3)(C(F)(F)F)C2)ccc1Cl (stereo not shown) [I-14]
not listed: [2]
≥ 75%: all other assays above

O=C(Nc1ccc(F)cc1F)c1cc(NC2=NOC(c3cc(Cl)cc(Cl)c3)(C(F)(F)F)C2)ccc1F (stereo not shown) [I-154]
not listed: [2]
≥ 75%: all other assays above

Cc1ccc(NC2=NOC(c3cc(Cl)cc(Cl)c3)(C(F)(F)F)C2)cc1C(=O)NC1CC1 (stereo not shown) [I-169]
not listed: [2]
≥ 75%: all other assays above

O=C(NCC(F)(F)F)c1cc(NC2=NOC(c3cc(Cl)cc(Cl)c3)(C(F)(F)F)C2)ccc1OC(F)F (stereo not shown) [I-178]
not listed: [2]
≥ 75%: all other assays above

CC(=O)Nc1c(F)ccc(NC(=O)c2cc(NC3=NOC(c4cc(Cl)cc(Cl)c4)(C(F)(F)F)C3)ccc2Cl)c1F (stereo not shown) [I-6]
not listed: [2]
≥ 75%: all other assays above

CCN1OC[C@@H](NC(=O)c2cc(NC3=NOC(c4cc(Cl)cc(Cl)c4)(C(F)(F)F)C3)ccc2C(F)(F)F)C1=O (stereo partly shown) [I-166]
not listed: [2]
≥ 75%: all other assays above

O=C(Nc1ccc(F)cc1F)c1cc(NC2=NOC(c3cc(Cl)cc(Cl)c3)(C(F)(F)F)C2)ccc1OC(F)F (stereo not shown) [I-157]
not listed: [2]
≥ 75%: all other assays above

CCN1OC[C@@H](NC(=O)c2cc(NC3=NOC(c4cc(Cl)cc(Cl)c4)(C(F)(F)F)C3)ccc2F)C1=O (stereo partly shown) [I-162]
not listed: [2]
≥ 75%: all other assays above

CCN1OC[C@@H](NC(=O)c2cc(NC3=NOC(c4cc(Cl)cc(Cl)c4)(C(F)(F)F)C3)ccc2C)C1=O (stereo partly shown) [I-163]
not listed: [2]
≥ 75%: all other assays above

O=C(Nc1ccc(F)cc1F)c1cc(NC2=NOC(c3cc(Cl)cc(Cl)c3)(C(F)(F)F)C2)ccc1Cl (stereo not shown) [I-2]
not listed: [2]
≥ 75%: all other assays above
